Data published in PMC3492951 (Journal of the American Chemical Society, 2011).

Assays:
SAH hydrolase = conditions: in cells / in vivo; cited from earlier work
[1] = biological target: T1, CARM1 (also known as PRMT4) (Homo sapiens, UniProt Q86X55); assay: CARM1 enzyme inhibition; type: biochemical; conditions: read-out: Ki CARM1; competitive inhibitors
T1 sequence (Q86X55 1-608): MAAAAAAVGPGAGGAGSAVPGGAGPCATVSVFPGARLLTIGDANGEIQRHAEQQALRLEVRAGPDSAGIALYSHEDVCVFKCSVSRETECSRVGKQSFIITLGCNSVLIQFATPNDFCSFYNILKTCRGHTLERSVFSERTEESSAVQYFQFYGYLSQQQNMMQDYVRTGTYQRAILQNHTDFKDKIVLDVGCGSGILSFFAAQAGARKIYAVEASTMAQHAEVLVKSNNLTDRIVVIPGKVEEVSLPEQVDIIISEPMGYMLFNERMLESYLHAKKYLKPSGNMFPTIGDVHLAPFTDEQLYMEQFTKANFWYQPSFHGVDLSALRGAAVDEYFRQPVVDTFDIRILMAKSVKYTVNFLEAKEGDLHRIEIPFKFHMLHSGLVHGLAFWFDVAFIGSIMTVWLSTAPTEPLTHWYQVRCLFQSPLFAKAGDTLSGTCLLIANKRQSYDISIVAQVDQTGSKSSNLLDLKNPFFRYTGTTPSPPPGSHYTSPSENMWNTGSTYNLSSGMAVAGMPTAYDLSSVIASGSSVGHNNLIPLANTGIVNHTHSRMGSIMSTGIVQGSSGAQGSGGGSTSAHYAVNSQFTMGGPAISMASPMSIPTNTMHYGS

PRMT1 = PRMT1 (Homo sapiens, UniProt Q99873); assay: PRMT1 enzyme inhibition; type: biochemical; conditions: read-out: Ki PRMT1; competitive inhibitors
G9a = biological target: T2, G9a (Homo sapiens, UniProt Q96KQ7); assay: G9a enzyme inhibition; type: biochemical
T2 sequence (Q96KQ7 1-1210): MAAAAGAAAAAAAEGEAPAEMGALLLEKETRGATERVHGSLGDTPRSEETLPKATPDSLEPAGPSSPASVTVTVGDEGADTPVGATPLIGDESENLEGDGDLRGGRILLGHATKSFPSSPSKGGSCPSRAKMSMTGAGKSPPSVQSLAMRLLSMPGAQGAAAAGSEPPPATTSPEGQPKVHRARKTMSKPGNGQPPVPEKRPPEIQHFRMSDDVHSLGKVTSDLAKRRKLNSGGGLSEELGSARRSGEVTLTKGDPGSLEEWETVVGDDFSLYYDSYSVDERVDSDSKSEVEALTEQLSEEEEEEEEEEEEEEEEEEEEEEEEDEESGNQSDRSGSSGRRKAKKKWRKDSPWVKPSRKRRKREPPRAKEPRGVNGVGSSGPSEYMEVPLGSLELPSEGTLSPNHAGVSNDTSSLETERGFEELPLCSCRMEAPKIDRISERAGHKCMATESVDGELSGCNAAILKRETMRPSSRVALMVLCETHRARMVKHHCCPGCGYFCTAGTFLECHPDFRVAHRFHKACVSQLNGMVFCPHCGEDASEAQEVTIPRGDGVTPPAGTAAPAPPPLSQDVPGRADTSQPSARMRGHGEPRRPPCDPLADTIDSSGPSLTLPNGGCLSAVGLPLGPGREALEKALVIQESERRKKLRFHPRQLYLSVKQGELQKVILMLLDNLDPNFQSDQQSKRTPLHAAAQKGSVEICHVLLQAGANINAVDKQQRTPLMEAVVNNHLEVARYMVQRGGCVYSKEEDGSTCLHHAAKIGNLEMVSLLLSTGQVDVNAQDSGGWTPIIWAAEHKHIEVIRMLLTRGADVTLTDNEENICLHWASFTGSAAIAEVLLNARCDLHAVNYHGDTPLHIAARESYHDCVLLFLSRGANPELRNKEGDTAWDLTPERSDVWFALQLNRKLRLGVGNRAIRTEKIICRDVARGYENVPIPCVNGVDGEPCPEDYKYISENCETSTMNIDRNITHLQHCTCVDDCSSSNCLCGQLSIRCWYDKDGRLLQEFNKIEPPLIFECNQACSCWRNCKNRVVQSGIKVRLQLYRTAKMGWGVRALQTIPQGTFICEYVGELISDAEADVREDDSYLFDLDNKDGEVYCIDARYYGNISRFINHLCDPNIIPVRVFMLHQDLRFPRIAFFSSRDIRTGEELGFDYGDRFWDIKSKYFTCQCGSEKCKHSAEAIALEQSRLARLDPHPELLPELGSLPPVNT

PRMT1, sequence (Q99873 whole entry, species assumed): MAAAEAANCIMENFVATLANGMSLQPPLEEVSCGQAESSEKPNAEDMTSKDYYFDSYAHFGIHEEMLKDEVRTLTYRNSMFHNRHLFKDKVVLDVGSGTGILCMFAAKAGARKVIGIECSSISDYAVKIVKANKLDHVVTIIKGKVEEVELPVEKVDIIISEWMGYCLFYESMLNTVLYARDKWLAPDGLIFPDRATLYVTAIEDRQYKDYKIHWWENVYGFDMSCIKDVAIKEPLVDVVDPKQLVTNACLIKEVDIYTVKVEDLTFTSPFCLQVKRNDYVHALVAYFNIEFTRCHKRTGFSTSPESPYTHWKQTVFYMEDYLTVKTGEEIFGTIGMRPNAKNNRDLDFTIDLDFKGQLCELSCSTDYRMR

SMILES	degradation to adenosine and homocysteine by SAH hydrolase (SAH hydrolase)	Ki [1] [µM]	Ki (PRMT1) [µM]	activity on G9a (G9a)	Ki (G9a; read-out: Ki G9a, competitive inhibitors) [µM]
Nc1ncnc2c1ncn2[C@@H]1O[C@H](CSCC[C@H](N)C(=O)O)[C@@H](O)[C@H]1O [SAH, S-(5'-adenosyl)-L-homocysteine]	quickly degraded	–	–	–	–
N[C@@H](CCSC[C@H]1O[C@@H](n2cnc3c(NCc4ccccc4)ncnc32)[C@H](O)[C@@H]1O)C(=O)O [Compound 2, N6-benzyl-SAH]	–	18	21.2	inactive	> 100
